# Tests used:
# [1] = Lipophilicity determination by gradient HPLC (log k′g); format: physicochemical; conditions: HPLC gradient 1, RP-18, triethylammonium phosphate buffer pH 6.5 / methanol (ion pair chromatography)
# Method: Gradient 1: Stationary phase: Polygosil 60-10, RP-18; 250×4 mm (Macherey & Nagel, DOren, Germany). Mobile phase A: 10 ml 1 M triethylammonium phosphate buffer (TEAP), pH 6.5+990 ml methanol. Mobile phase B: 10 ml 1 M TEAP, pH 6.5+990 ml H2O. Time program: 0 min: 100% B; 60 min: 100% A; 65 min: 100% A; 70 min: 100% B; 90 min: 100% B. Flow rate: 1.0 ml/min.
# The octanol/water coefficient Log P is the commonly accepted indicator for the expected property of a given chemical entity to pass cellular membranes by passive diffusion. However, its practical determination for polar compounds such as multiply charged nucleotides is difficult in reality. Often, the information about membrane permeability must be received by fragmental analysis or other calculations.
# Given this fact, an established HPLC method is used here, which is based on the measurement of retention on a reversed phase column^7. In contrast to Log P, this method yields the indicator log k′g, which allows for a ranking of different nucleotides of the same charge according to their lipophilicity.
# Since CDNs are twofold negatively charged molecules which are only very insufficiently retarded on a reversed phase HPLC column, the determinations were performed in presence of the lipophilic triethylammonium cation (ion pair chromatography).
# According to the established method^7 HPLC gradient 1 was used for the determination of lipophilicity.
# THP1 Dual KO STING cells = test: SEAP reporter assay in THP1 Dual KO STING control cells; format: cell-based, human; conditions: 40 μg/ml, 24 hours (FIG. 2)
# Method: (§1) Legend for Synthesis 5: THP1-Blue™ cells ((THP1-ISG); InvivoGen, catalogue number: thp-isg; concentration: 5×10^5/ml, 180 μl/well (96-well-plate) and THP1 Dual™ KO STING cells ((STING KO) InvivoGen, catalogue number: thpd-kostg; concentration: 5×10^5/ml, 180 μl/well (96-well-plate) were incubated with inventive CDNs (concentration 40 μg/ml each) in medium (RPMI-1640, 2 mM L-glutamine, 1.5 g/I sodium bicarbonate, 4.5 g/I glucose, 10 mM HEPES, 1 mM sodium pyruvate, 10% FCS, 100 μg/mL Zeocin™, 110 μg/mL Normocin™, Pen-Strep 50 U/mL) for 24 hours at 37° C. in 5% CO2. For incubations with THP1 Dual™ KO STING cells, 10 μg/ml of blasticidin were added to the medium. Quantification was performed with SEAP detection reagent QUANTI-Blue™ (InvivoGen; catalogue number: rep-qb1; incubation time: 15 min at 37° C. in 5% CO2) by optical density (OD) determination at 625 nm.
# STING signalling pathway = test: Interferon-β promoter SEAP reporter assay in THP1-Blue cells; format: cell-based, human; conditions: 0, 10, 20, 40 μg/ml, 24 hours
# Method: Legend for Synthesis 4: THP1-Blue™ cells ((THP1-ISG); InvivoGen, catalogue number: thp-isg; concentration: 5×10^5/ml, 180 μl/well (96-well-plate) were incubated with inventive CDNs in different concentrations (0 μg/ml; 10 μg/ml; 20 μg/ml; 40 μg/ml) in medium (RPMI-1640, 2 mM L-glutamine, 1.5 g/I sodium bicarbonate, 4.5 g/I glucose, 10 mM HEPES, 1 mM sodium pyruvate, 10% FCS, 100 μg/ml Zeocin™, 110 μg/ml Normocin™, Pen-Strep 50 U/ml) for 24 hours at 37° C. in 5% CO2. The quantification was performed with SEAP detection reagent QUANTI-Blue™ (InvivoGen; catalogue number: rep-qb1; incubation time: 30 min at 37° C. in 5% CO2) by optical density (OD) determination at 625 nm.
# as §1
# Cell line: THP1-Blue™ cells (InvivoGen, catalogue number: thp-isg) are derived from THP1 cells. THP1-Blue™ cells in a cell culture dish are stimulated by the administration of a CDN according to the invention or a buffer control.
# In these genetically modified cells, the gene for secreted embryonic alkaline phosphatase (SEAP) is under the control of an interferon-β promoter.
# After stimulation of the cells with an inventive CDN, the supernatant of the cell culture was removed and the enzymatic activity of SEAP was measured photometrically in a colorimetric assay by measuring the extinction at 625 nm (optical density; OD 625 nm).
# Administration of an inventive CDN induces an increase in the activity of SEAP, which is a measure of the activity of the STING signalling pathway.
"log k′g ([1]; listed as 98, MI1)",log k′g [1],"log k′g ([1]; listed as 29, MI2)",Compound,effect of elevated OD at 625 nm in STING knock out cells (THP1 Dual KO STING cells),"SEAP activity, elevated OD at 625 nm, concentration-dependent (STING signalling pathway)"
1.524,,,"Nc1ncnc2c1ncn2[C@@H]1O[C@@H]2COP(=O)(S)OC3C(O)[C@@H](COP(=O)(S)OC2C1O)O[C@H]3n1cnc2ccccc21 (single isomer, unassigned) [Compound 98, MI1, Cyclic (adenosine-(3′→5′)-monophosphorothioate-benzimidazole riboside-(2′→5′)-monophosphorothioate)]",no longer observed,positive
,1.322,,"Nc1ncnc2c1ncn2[C@@H]1O[C@@H]2COP(=O)(O)OC3C(O)[C@H](n4cnc5ccccc54)O[C@@H]3COP(=O)(O)OC2C1F (stereo partly drawn) [Compound 79, cyclic (2′-fluoro-2′-deoxyadenosine-(3′ −> 5′)-monophosphate-benzimidazole riboside-(3′ −> 5′)-monophosphate)]",no longer observed,positive
,,2.403,"Nc1nc2c(ncn2[C@@H]2O[C@@H]3COP(=O)(S)OC4C(O)[C@H](n5cnc6cc(Cl)c(Cl)cc65)O[C@@H]4COP(=O)(S)OC2C3O)c(=O)[nH]1 (single isomer, unassigned) [Compound 29, MI2, Cyclic (guanosine-(2′→5′)-monophosphorothioate-5,6-dichlorobenzimidazole riboside-(3′→5′)-monophosphorothioate)]",no longer observed,positive
